Broadly, the inhibition is the change of the read-out against control, counted positive when it falls.

Like-named read-outs stand apart in the source and are kept apart here.

Consider one compound from article PMC7714403 (JCI Insight, 2020).

Common to all, as to experiment: KiNativ, MOLM13 live cells
Assay type in all cases: cell-based

One assay has as its target BARK1 (Homo sapiens, UniProt P25098). Particulars: MOLM-13; 100 nM, 2 hours; Lys2; read-out: Inhibition vs DMSO. As to the method: (§1) Samples were analyzed by KiNativ in situ kinase profiling by ActivX Biosciences.
For the next assay, the target named is BTK (Homo sapiens, UniProt Q06187). Particulars: 100 nM, 2 hours; Activation Loop. On the procedure:
as §1

In another assay the target is CDK4 (Homo sapiens, UniProt P11802). The settings on record: MOLM-13; 100 nM, 2 hours; Lys2; read-out: Inhibition vs DMSO. On the procedure: as §1
A further assay has as its target CDK5 (Homo sapiens, UniProt Q00535). Particulars: MOLM-13, 2 h, 100 nM. On the procedure:
as §1

The target of the next assay is CaMK1a (Homo sapiens, UniProt Q14012). The settings on record: MOLM-13; 100 nM, 2 hours; Lys1; read-out: Inhibition vs DMSO. On the procedure:
as §1

A further assay deals with Erk1 (Homo sapiens, UniProt P27361). Particulars: MOLM-13; 100 nM, 2 hours; Lys2; read-out: Inhibition vs DMSO. On the procedure: as §1
For another assay, the target named is IKKe (Homo sapiens, UniProt Q14164). The settings on record: MOLM-13; 100 nM, 2 hours; Lys1; read-out: Inhibition vs DMSO. As to the method:
as §1

For another assay, the target named is IRAK1 (Homo sapiens, UniProt P51617). Particulars: MOLM-13; 100 nM, 2 hours; Lys2; read-out: Inhibition vs DMSO. As to the method: as §1
In a further assay the target is T1, IRAK3 (Homo sapiens, UniProt Q9Y616).
T1 sequence (Q9Y616 1-596): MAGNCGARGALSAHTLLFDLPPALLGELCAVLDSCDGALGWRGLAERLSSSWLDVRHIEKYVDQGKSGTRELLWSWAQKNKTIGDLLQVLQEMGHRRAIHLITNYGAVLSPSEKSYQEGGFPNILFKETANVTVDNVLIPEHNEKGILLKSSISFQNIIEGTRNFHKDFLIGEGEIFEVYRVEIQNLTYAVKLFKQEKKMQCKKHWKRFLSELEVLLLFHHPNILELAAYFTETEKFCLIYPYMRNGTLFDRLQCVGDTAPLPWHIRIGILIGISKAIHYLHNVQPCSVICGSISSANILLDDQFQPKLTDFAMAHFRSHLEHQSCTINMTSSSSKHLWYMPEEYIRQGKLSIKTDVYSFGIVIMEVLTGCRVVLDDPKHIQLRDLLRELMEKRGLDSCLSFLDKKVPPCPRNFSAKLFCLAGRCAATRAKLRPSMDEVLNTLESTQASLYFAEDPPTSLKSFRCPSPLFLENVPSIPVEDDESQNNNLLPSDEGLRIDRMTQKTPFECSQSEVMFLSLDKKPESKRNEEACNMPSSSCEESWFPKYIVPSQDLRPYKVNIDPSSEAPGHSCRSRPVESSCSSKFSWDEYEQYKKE
The settings on record: MOLM-13; 100 nM, 2 hours; Lys1; read-out: Inhibition vs DMSO. On the procedure: as §1

Another assay addresses LOK (Homo sapiens, UniProt O94804). Particulars: 100 nM, 2 hours. On the procedure:
as §1

For the next assay, the target named is T2, MASTL (Homo sapiens, UniProt Q96GX5).
T2 sequence (Q96GX5 1-879): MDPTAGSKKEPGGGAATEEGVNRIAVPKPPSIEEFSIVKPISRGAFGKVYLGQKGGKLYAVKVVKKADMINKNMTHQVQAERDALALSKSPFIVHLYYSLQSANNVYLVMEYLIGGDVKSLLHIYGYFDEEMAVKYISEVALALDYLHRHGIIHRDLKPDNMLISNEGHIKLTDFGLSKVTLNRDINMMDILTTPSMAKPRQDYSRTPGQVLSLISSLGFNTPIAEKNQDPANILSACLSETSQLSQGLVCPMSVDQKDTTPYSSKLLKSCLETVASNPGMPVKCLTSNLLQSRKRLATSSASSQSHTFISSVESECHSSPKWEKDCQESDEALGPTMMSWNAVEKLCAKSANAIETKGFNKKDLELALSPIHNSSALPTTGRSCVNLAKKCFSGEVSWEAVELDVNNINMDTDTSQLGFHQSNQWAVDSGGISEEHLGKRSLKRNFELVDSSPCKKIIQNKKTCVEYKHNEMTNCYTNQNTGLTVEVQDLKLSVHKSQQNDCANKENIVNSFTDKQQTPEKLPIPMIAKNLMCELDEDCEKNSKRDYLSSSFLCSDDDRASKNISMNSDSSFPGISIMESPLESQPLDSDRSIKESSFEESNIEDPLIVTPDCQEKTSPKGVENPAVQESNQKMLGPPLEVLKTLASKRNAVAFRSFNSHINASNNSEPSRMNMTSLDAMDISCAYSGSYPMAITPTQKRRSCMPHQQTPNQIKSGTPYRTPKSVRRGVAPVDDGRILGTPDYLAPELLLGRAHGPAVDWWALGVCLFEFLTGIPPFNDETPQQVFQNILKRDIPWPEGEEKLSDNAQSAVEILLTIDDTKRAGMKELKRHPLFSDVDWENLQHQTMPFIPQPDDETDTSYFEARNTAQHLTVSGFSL
Particulars: 100 nM, 2 hours. As to the method: as §1

Another assay addresses PCTAIRE2 (Homo sapiens, UniProt Q00537). Particulars: MOLM-13; 100 nM, 2 hours; Lys2; read-out: Inhibition vs DMSO. On the procedure: as §1
A further assay has as its target PIK3C3 (Homo sapiens, UniProt Q8NEB9). Particulars: MOLM-13, 2 h, 100 nM, ATP, read-out: Inhibition vs DMSO. On the procedure: as §1
For the next assay, the target named is SGK3 (Homo sapiens, UniProt Q96BR1). The settings on record: MOLM-13; 100 nM, 2 hours; Lys1; read-out: Inhibition vs DMSO. On the procedure:
as §1

A further assay addresses SMG1 (Homo sapiens, UniProt Q96Q15). The settings on record: 100 nM, 2 hours, ATP. On the procedure:
as §1

For the next assay, the target named is T3, TYK2 domain2 (Homo sapiens, UniProt P29597).
T3 construct: TYK2 domain2
T3 sequence (P29597 whole entry, the tested form may be a part): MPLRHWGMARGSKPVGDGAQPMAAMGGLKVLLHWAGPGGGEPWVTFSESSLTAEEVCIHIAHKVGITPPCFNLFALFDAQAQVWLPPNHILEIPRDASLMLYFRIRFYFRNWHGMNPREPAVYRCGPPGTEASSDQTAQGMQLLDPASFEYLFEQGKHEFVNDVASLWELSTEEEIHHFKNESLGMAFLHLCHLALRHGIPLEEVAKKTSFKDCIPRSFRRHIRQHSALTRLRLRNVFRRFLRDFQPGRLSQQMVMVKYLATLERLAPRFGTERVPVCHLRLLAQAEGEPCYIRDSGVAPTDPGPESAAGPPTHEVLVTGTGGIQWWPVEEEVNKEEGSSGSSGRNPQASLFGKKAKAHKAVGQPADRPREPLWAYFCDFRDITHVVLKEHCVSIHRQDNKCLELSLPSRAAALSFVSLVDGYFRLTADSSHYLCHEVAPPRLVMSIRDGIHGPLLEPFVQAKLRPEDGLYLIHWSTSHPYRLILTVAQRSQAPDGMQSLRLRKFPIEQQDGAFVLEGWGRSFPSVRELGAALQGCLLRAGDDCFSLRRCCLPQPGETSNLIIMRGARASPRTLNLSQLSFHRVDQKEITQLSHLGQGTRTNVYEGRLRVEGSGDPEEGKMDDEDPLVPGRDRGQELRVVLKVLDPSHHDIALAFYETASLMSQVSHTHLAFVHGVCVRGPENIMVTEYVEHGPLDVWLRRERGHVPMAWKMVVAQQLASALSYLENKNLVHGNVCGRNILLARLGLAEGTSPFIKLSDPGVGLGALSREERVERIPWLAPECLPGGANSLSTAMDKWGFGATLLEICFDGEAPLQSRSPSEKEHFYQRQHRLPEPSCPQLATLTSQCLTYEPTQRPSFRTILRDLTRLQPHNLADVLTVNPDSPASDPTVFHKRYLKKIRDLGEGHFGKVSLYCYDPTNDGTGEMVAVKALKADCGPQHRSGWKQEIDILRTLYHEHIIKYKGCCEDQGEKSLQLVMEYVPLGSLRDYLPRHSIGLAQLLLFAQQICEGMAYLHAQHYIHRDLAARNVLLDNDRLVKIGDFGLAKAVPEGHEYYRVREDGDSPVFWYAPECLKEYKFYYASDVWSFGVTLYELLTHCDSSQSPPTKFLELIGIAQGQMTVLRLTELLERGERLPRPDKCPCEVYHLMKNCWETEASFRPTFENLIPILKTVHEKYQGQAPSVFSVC
The settings on record: 100 nM, 2 hours; Activation Loop. On the procedure:
as §1

PIK3C3, sequence (Q8NEB9 whole entry): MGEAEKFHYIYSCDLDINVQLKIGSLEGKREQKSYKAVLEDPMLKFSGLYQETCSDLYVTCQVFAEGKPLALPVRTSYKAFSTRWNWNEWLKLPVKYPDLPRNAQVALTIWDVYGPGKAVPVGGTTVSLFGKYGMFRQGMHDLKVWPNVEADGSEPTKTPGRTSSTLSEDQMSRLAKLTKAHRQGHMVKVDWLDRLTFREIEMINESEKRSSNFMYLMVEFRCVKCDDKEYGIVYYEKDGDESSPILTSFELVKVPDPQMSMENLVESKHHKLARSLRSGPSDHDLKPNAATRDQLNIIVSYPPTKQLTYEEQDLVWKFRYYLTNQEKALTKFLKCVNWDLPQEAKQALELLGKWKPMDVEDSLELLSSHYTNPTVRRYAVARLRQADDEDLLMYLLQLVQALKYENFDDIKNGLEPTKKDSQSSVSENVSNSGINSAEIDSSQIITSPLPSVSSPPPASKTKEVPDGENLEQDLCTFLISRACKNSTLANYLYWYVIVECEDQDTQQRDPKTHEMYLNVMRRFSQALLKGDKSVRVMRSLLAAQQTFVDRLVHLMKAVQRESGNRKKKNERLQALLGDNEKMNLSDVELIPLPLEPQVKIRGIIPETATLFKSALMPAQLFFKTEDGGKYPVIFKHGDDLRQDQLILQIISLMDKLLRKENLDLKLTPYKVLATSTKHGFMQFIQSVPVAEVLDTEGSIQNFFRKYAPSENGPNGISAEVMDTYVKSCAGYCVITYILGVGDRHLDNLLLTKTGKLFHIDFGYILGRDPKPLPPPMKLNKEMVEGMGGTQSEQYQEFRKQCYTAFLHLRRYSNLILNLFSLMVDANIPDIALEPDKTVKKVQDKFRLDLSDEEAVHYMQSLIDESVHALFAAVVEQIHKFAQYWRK
LOK, sequence (O94804 whole entry): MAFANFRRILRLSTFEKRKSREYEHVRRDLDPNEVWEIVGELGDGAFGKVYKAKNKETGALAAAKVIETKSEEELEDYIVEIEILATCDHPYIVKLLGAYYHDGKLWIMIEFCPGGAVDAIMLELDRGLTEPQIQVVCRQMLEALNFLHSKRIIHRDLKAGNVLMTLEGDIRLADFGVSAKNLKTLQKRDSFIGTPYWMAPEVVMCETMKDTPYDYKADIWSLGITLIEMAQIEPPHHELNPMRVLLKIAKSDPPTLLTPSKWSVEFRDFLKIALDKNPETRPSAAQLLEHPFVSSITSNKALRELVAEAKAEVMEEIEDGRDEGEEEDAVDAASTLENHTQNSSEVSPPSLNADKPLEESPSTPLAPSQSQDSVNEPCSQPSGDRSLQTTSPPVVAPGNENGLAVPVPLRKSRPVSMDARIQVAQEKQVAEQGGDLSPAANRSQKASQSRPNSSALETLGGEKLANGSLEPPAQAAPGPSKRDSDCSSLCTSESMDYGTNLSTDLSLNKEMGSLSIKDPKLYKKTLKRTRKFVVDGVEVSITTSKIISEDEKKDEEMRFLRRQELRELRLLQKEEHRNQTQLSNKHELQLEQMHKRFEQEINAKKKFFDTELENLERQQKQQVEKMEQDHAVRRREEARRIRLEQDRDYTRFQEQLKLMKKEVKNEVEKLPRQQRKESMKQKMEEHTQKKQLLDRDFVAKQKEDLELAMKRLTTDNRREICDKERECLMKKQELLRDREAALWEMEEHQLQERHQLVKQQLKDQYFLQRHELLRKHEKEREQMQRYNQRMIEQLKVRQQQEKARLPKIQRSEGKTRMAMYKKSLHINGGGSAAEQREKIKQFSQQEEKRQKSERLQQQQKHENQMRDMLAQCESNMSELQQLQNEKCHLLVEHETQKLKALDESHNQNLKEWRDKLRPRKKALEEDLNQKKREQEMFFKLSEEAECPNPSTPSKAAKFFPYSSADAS
CDK5, sequence (Q00535 whole entry): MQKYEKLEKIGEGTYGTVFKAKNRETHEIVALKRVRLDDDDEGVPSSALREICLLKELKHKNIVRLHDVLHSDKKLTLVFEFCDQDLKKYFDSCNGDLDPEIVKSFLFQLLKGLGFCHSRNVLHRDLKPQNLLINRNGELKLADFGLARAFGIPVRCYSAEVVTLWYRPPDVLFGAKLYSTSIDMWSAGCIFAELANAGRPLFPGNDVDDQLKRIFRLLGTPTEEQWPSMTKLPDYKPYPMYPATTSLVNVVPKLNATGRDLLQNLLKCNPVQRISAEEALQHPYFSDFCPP
SGK3, sequence (Q96BR1 whole entry): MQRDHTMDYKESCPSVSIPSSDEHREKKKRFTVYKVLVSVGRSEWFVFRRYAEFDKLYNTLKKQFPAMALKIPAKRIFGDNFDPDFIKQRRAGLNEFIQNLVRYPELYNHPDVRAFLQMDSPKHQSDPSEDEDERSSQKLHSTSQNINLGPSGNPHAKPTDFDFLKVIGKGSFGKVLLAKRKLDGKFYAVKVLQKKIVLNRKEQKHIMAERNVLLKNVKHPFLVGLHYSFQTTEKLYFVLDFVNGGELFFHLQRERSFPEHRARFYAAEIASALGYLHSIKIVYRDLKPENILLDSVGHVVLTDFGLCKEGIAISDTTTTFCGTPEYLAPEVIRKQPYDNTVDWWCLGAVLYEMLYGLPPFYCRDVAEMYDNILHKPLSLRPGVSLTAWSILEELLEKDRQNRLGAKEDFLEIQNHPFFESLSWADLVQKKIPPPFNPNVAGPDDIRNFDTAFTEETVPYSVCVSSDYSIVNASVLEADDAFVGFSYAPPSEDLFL
CaMK1a, sequence (Q14012 whole entry): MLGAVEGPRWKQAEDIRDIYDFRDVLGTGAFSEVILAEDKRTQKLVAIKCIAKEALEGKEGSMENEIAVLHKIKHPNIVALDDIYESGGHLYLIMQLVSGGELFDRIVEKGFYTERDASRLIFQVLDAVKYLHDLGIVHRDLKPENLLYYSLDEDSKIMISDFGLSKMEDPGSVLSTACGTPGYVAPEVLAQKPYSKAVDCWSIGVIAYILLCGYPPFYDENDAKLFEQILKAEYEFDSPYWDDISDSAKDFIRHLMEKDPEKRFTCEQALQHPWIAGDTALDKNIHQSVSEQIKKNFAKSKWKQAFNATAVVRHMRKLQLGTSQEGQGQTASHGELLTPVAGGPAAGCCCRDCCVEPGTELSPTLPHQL
BARK1, sequence (P25098 whole entry): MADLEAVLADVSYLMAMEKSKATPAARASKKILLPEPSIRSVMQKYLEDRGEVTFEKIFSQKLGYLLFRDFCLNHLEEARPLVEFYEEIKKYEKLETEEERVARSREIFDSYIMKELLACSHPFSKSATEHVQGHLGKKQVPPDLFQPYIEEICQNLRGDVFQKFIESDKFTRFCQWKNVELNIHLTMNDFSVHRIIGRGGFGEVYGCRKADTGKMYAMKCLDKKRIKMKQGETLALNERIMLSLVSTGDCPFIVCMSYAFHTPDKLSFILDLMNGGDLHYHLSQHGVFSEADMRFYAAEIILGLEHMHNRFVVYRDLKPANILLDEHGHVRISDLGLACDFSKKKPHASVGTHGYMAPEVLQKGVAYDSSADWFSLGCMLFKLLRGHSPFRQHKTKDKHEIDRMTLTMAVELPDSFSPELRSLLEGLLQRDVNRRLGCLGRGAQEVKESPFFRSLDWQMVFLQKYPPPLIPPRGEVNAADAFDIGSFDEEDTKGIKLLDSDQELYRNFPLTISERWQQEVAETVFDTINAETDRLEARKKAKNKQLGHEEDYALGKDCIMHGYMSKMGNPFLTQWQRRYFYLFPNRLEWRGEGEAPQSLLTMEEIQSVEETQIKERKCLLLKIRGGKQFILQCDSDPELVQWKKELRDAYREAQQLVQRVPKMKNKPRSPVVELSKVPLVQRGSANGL

Turning to `CN1CCN(Cc2ccc(Nc3ncc(Cl)c(Nc4ccccc4S(=O)(=O)N(C)C)n3)cc2)CC1` [TP-0903], the inhibition at 0.1 µM was -13.9% on BARK1; 9.8% at CDK4; 31.9% on CDK5 (Lys1, read-out: Inhibition vs DMSO); 20.7% at CDK5 (Lys2, read-out: Inhibition vs DMSO); 1.3% on CaMK1a; -2.8% at Erk1. In addition, the inhibition at 0.1 µM on IKKe is 19.3%; at IRAK1, 43.3%; at IRAK3, 92.5%; at PCTAIRE2 it was 20.4%; on PIK3C3 (TEDGGKYPVIFKHGDDLR), -23.9%; at PIK3C3 (TEDGGKYPVIFKHGDDLRQDQLILQIISLMDK) it was 2.6%. The inhibition at 0.1 µM at SGK3 is -9.6%. Besides, the “Inhibition vs DMSO” value is listed as 57.0% on BTK; 56.8% at LOK (Lys1); 82.8% at LOK (Lys2); 10.4% on MASTL (ATP Loop); -9.8% on MASTL (Lys1); -27.8% at SMG1 (DTVTIHSVGGTITILPTKTKPK). Moreover, the “Inhibition vs DMSO” value on SMG1 (SYPYLFKGLEDLHLDER) was -27.3%; at TYK2 domain2, -0.9%.
